Laboratory results as given in PubChem BioAssay AID1963964 (Molecular Pharmacology Branch, DTP, NCI, 2024).

Test system: 997726-040-R-J2-PDC tumor spheroids, viability
Assay: Anticancer human tumor 997726-040-R-J2-PDC patient-derived squamous cell lung carcinoma cell line growth inhibition [PI3K]
Conditions: spheroids with HUVEC and MSC; for IC50: curve of first compound; for viability, T/C: stronger effect = lower value
Procedure, shortened: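 Tumor cells grown as multi-cell spheroids with HUVEC endothelial cells and MSC fibroblast-like stroma were treated with targeted agents combined with inavolisib, alpelisib, duvelisib or copanlisib. Doses fell in half-log steps from near clinical Cmax, else from 10 microM. Viability was measured.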

[1] = second compound 0.00316 µM, first compound 0.0316 µM
[2] = second compound 0.00316 µM, first compound 0.1 µM
[3] = second compound 0.00316 µM, first compound 0.316 µM
[4] = second compound 0.00316 µM, first compound 1 µM
[5] = second compound 0.00316 µM, first compound 3.16 µM
[6] = second compound 0.00316 µM, first compound 10 µM
[7] = second compound 0.01 µM, first compound 0.0316 µM
[8] = second compound 0.01 µM, first compound 0.1 µM
[9] = second compound 0.01 µM, first compound 0.316 µM
[10] = second compound 0.01 µM, first compound 1 µM
[11] = second compound 0.01 µM, first compound 3.16 µM
[12] = second compound 0.01 µM, first compound 10 µM
[13] = second compound 0.0316 µM, first compound 0.0316 µM
[14] = second compound 0.0316 µM, first compound 0.1 µM
[15] = second compound 0.0316 µM, first compound 0.316 µM
[16] = second compound 0.0316 µM, first compound 1 µM
[17] = second compound 0.0316 µM, first compound 3.16 µM
[18] = second compound 0.0316 µM, first compound 10 µM
[19] = second compound 0.1 µM, first compound 0.0316 µM
[20] = second compound 0.1 µM, first compound 0.1 µM
[21] = second compound 0.1 µM, first compound 0.316 µM
[22] = second compound 0.1 µM, first compound 1 µM
[23] = second compound 0.1 µM, first compound 3.16 µM
[24] = second compound 0.1 µM, first compound 10 µM
[25] = second compound 0.316 µM, first compound 0.0316 µM
[26] = second compound 0.316 µM, first compound 0.1 µM
[27] = second compound 0.316 µM, first compound 0.316 µM
[28] = second compound 0.316 µM, first compound 1 µM
[29] = second compound 0.316 µM, first compound 3.16 µM
[30] = second compound 0.316 µM, first compound 10 µM
[31] = second compound 1 µM, first compound 0.0316 µM
[32] = second compound 1 µM, first compound 0.1 µM
[33] = second compound 1 µM, first compound 0.316 µM
[34] = second compound 1 µM, first compound 1 µM
[35] = second compound 1 µM, first compound 3.16 µM
[36] = second compound 1 µM, first compound 10 µM
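Also: spheroids exposed to compounds for seven days before readout.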

Question: With `CC1(C)CCC(CN2CCN(c3ccc(C(=O)NS(=O)(=O)c4ccc(NCC5CCOCC5)c([N+](=O)[O-])c4)c(Oc4cnc5[nH]ccc5c4)c3)CC2)=C(c2ccc(Cl)cc2)C1` + COc1c(OCCCN2CCOCC2)ccc2c3n(c(=NC(=O)c4cnc(N)nc4)nc12)CCN3 as the compound, how does the IC50 (second compound 0.00316 µM) read?
Answer: 6.89 µM

Question: What about the IC50 (second compound 0.01 µM) of the same compound?
Answer: 4.2 µM

Question: What about the IC50 (second compound 0.0316 µM) of the same compound?
Answer: < 0.0316 µM

Question: And the IC50 (second compound 0.1 µM)?
Answer: < 0.0316 µM

Question: What about the IC50 (second compound 0.316 µM) of the same compound?
Answer: < 0.0316 µM

Question: What about the IC50 (second compound 1 µM) of the same compound?
Answer: < 0.0316 µM

Question: What about the viability, T/C [1] of the same compound?
Answer: 75.4%

Question: And the viability, T/C [2]?
Answer: 77.4%

Question: And the viability, T/C [3]?
Answer: 74.3%

Question: What about the viability, T/C [4] of the same compound?
Answer: 81.1%

Question: And the viability, T/C [5]?
Answer: 78.2%

Question: What about the viability, T/C [6] of the same compound?
Answer: 36.9%

Question: And the viability, T/C [7]?
Answer: 62%

Question: What about the viability, T/C [8] of the same compound?
Answer: 64.6%

Question: What about the viability, T/C [9] of the same compound?
Answer: 68.4%

Question: And the viability, T/C [10]?
Answer: 60.7%

Question: And the viability, T/C [11]?
Answer: 57.4%

Question: And the viability, T/C [12]?
Answer: 28.9%

Question: What about the viability, T/C [13] of the same compound?
Answer: 35.3%

Question: What about the viability, T/C [14] of the same compound?
Answer: 36.5%

Question: And the viability, T/C [15]?
Answer: 37.8%

Question: And the viability, T/C [16]?
Answer: 37.7%

Question: And the viability, T/C [17]?
Answer: 34.3%

Question: What about the viability, T/C [18] of the same compound?
Answer: 21.2%

Question: And the viability, T/C [19]?
Answer: 23.1%

Question: What about the viability, T/C [20] of the same compound?
Answer: 22.9%

Question: And the viability, T/C [21]?
Answer: 21.8%

Question: What about the viability, T/C [22] of the same compound?
Answer: 23%

Question: And the viability, T/C [23]?
Answer: 20.6%

Question: What about the viability, T/C [24] of the same compound?
Answer: 9.14%

Question: What about the viability, T/C [25] of the same compound?
Answer: 4.52%

Question: And the viability, T/C [26]?
Answer: 6.09%

Question: And the viability, T/C [27]?
Answer: 3.55%

Question: And the viability, T/C [28]?
Answer: 3.55%

Question: What about the viability, T/C [29] of the same compound?
Answer: 3.34%

Question: What about the viability, T/C [30] of the same compound?
Answer: 2.27%

Question: What about the viability, T/C [31] of the same compound?
Answer: 1.34%

Question: What about the viability, T/C [32] of the same compound?
Answer: 1.27%

Question: What about the viability, T/C [33] of the same compound?
Answer: 0.77%

Question: And the viability, T/C [34]?
Answer: 0.81%

Question: What about the viability, T/C [35] of the same compound?
Answer: 1.49%

Question: And the viability, T/C [36]?
Answer: 1.38%

Question: With `CCN1CCN(Cc2ccc(Nc3ncc(F)c(-c4cc(F)c5nc(C)n(C(C)C)c5c4)n3)nc2)CC1` + Cc1nc(NC(=O)N2CCCC2C(N)=O)sc1-c1ccnc(C(C)(C)C(F)(F)F)c1 as the compound, how does the IC50 (second compound 0.0316 µM) read?
Answer: > 1 µM

Question: And the IC50 (second compound 0.1 µM)?
Answer: 0.466 µM

Question: And the IC50 (second compound 0.316 µM)?
Answer: 0.00734 µM

Question: What about the IC50 (second compound 1 µM) of the same compound?
Answer: < 0.00316 µM

Question: And the IC50 (second compound 3.16 µM)?
Answer: < 0.00316 µM

Question: What about the IC50 (second compound 10 µM) of the same compound?
Answer: < 0.00316 µM

Question: What about the viability, T/C (second compound 0.0316 µM, first compound 0.00316 µM) of the same compound?
Answer: 82.8%

Question: What about the viability, T/C (second compound 0.0316 µM, first compound 0.01 µM) of the same compound?
Answer: 79.5%

Question: What about the viability, T/C [13] of the same compound?
Answer: 61.5%

Question: What about the viability, T/C [14] of the same compound?
Answer: 69.5%

Question: And the viability, T/C [15]?
Answer: 58.3%

Question: And the viability, T/C [16]?
Answer: 59.8%

Question: And the viability, T/C (second compound 0.1 µM, first compound 0.00316 µM)?
Answer: 76.7%

Question: And the viability, T/C (second compound 0.1 µM, first compound 0.01 µM)?
Answer: 71.1%

Question: What about the viability, T/C [19] of the same compound?
Answer: 67.3%

Question: And the viability, T/C [20]?
Answer: 55.2%

Question: And the viability, T/C [21]?
Answer: 52.3%

Question: And the viability, T/C [22]?
Answer: 46.3%

Question: And the viability, T/C (second compound 0.316 µM, first compound 0.00316 µM)?
Answer: 52.5%

Question: What about the viability, T/C (second compound 0.316 µM, first compound 0.01 µM) of the same compound?
Answer: 51.8%

Question: What about the viability, T/C [25] of the same compound?
Answer: 45%

Question: And the viability, T/C [26]?
Answer: 39%

Question: What about the viability, T/C [27] of the same compound?
Answer: 37.1%

Question: And the viability, T/C [28]?
Answer: 41.1%

Question: What about the viability, T/C (second compound 1 µM, first compound 0.00316 µM) of the same compound?
Answer: 40.8%

Question: What about the viability, T/C (second compound 1 µM, first compound 0.01 µM) of the same compound?
Answer: 39.5%

Question: What about the viability, T/C [31] of the same compound?
Answer: 37%

Question: What about the viability, T/C [32] of the same compound?
Answer: 30.9%

Question: What about the viability, T/C [33] of the same compound?
Answer: 29%

Question: What about the viability, T/C [34] of the same compound?
Answer: 33.8%

Question: And the viability, T/C (second compound 3.16 µM, first compound 0.00316 µM)?
Answer: 29.9%

Question: And the viability, T/C (second compound 3.16 µM, first compound 0.01 µM)?
Answer: 27%

Question: What about the viability, T/C (second compound 3.16 µM, first compound 0.0316 µM) of the same compound?
Answer: 26%

Question: And the viability, T/C (second compound 3.16 µM, first compound 0.1 µM)?
Answer: 22.9%

Question: And the viability, T/C (second compound 3.16 µM, first compound 0.316 µM)?
Answer: 23.4%

Question: What about the viability, T/C (second compound 3.16 µM, first compound 1 µM) of the same compound?
Answer: 19.5%

Question: What about the viability, T/C (second compound 10 µM, first compound 0.00316 µM) of the same compound?
Answer: 16.9%

Question: What about the viability, T/C (second compound 10 µM, first compound 0.01 µM) of the same compound?
Answer: 12.3%

Question: And the viability, T/C (second compound 10 µM, first compound 0.0316 µM)?
Answer: 10.3%

Question: What about the viability, T/C (second compound 10 µM, first compound 0.1 µM) of the same compound?
Answer: 10.9%

Question: What about the viability, T/C (second compound 10 µM, first compound 0.316 µM) of the same compound?
Answer: 11.9%

Question: And the viability, T/C (second compound 10 µM, first compound 1 µM)?
Answer: 11.2%

Question: Which IC50 (second compound 0.00316 µM) does the source give for `CC(C)NCC(C(=O)N1CCN(c2ncnc3c2C(C)CC3O)CC1)c1ccc(Cl)cc1` (stereo unspecified) + CC(Nc1ccc2c(c1)OCCn1cc(N3C(=O)OCC3C(F)F)nc1-2)C(N)=O here?
Answer: 0.269 µM

Question: And the IC50 (second compound 0.01 µM)?
Answer: 0.233 µM

Question: What about the IC50 (second compound 0.0316 µM) of the same compound?
Answer: 0.149 µM

Question: What about the IC50 (second compound 0.1 µM) of the same compound?
Answer: 0.0358 µM

Question: And the IC50 (second compound 0.316 µM)?
Answer: < 0.0316 µM

Question: And the IC50 (second compound 1 µM)?
Answer: < 0.0316 µM

Question: And the viability, T/C [1]?
Answer: 77.7%

Question: What about the viability, T/C [2] of the same compound?
Answer: 68.9%

Question: And the viability, T/C [3]?
Answer: 45.2%

Question: What about the viability, T/C [4] of the same compound?
Answer: 27.8%

Question: And the viability, T/C [5]?
Answer: 10.2%

Question: And the viability, T/C [6]?
Answer: 9.8%

Question: And the viability, T/C [7]?
Answer: 71.5%

Question: What about the viability, T/C [8] of the same compound?
Answer: 65.8%

Question: What about the viability, T/C [9] of the same compound?
Answer: 41.3%

Question: And the viability, T/C [10]?
Answer: 30.3%

Question: What about the viability, T/C [11] of the same compound?
Answer: 10.5%

Question: And the viability, T/C [12]?
Answer: 7.89%

Question: And the viability, T/C [13]?
Answer: 53.3%

Question: And the viability, T/C [14]?
Answer: 57.7%

Question: And the viability, T/C [15]?
Answer: 41.3%

Question: And the viability, T/C [16]?
Answer: 26.6%

Question: And the viability, T/C [17]?
Answer: 12.4%

Question: What about the viability, T/C [18] of the same compound?
Answer: 8.75%

Question: And the viability, T/C [19]?
Answer: 52.1%

Question: And the viability, T/C [20]?
Answer: 37.7%

Question: And the viability, T/C [21]?
Answer: 31.4%

Question: And the viability, T/C [22]?
Answer: 22.4%

Question: What about the viability, T/C [23] of the same compound?
Answer: 11.2%

Question: And the viability, T/C [24]?
Answer: 6.81%

Question: And the viability, T/C [25]?
Answer: 34.7%

Question: What about the viability, T/C [26] of the same compound?
Answer: 28.8%

Question: What about the viability, T/C [27] of the same compound?
Answer: 24.6%

Question: What about the viability, T/C [28] of the same compound?
Answer: 20.6%

Question: And the viability, T/C [29]?
Answer: 10.6%

Question: And the viability, T/C [30]?
Answer: 5.02%

Question: What about the viability, T/C [31] of the same compound?
Answer: 26.2%

Question: What about the viability, T/C [32] of the same compound?
Answer: 23.6%

Question: What about the viability, T/C [33] of the same compound?
Answer: 23.4%

Question: What about the viability, T/C [34] of the same compound?
Answer: 16.5%

Question: And the viability, T/C [35]?
Answer: 8.21%

Question: What about the viability, T/C [36] of the same compound?
Answer: 5.34%
